Experimental data published in patent US8722649B2, “Alpha-chloro and alpha-bromo phosphonate analogs of lysophosphatidic acid and methods of making and using thereof” (University of Utah Research Foundation, priority 2007, dated 2014).

Tested on: MDA-MB-231 cells
Assay: Orthotopic breast cancer xenograft
Type: in vivo, nude mice
Method: Orthotopic Human Breast Cancer Models. 4-week-old female athymic nude mice (Charles River Laboratories) were anesthetized by intraperitoneal injection of ketamine (80 mg/kg) and xylazine (10 mg/kg),according to the protocol approved by the University of Utah Institutional Animal Care and Use Committee (IACUC). Then the thoracic skin was sterilized with iodine and alcohol swabs.
MDA-MB-231 were trypsinized and resuspended in 2.5% CMHA-S and 3% gelatin-DTPH (v:v=1:1). Then, one volume of 4% PEGDA solution was added to four volumes of the cell suspension, and the resulting suspension was mixed gently by vortexing. The final cell concentration was 5×10^7 cells/ml. When the cell suspension was becoming viscous (ca. 3-5 min at 20° C.), 200 uL of gel was injected subcutaneously into the fourth mammary fat pad of each mouse, using a total of six mice per group.
The assessment of chemotherapy on breast cancer. The mice were randomly divided into 4 groups, including control (physiological saline), paclitaxel, LPA antagonist (19b), and paclitaxel followed by 19b. Six mice for each cell line were necessary to get statistically significant results according to literature. The control group received physiological saline i.p. injection twice per week starting at two weeks after the cell transplantation and ending at two weeks after the treatment. The treatment groups received i.p. administration of paclitaxel (10 mg/kg/day) or 19b (10 mg/kg/day) twice per week with the same period of control group. One additional group included 2 dose of paclitaxel followed by 2 dose of 19b with the same period of control group. The treatment was received […] twice per week for 2 weeks total.
The body weight and tumor size were measured twice per week, and general clinical status of the animals was also assessed every day. Perpendicular tumor diameters were measured using a vernier scale caliper and tumor volume estimated using the formula for ellipsoid: […] (mm^3)=[width(mm)^2×length(mm)]/2. Data are expressed as median tumor areas with interquartile ranges.
Animals were euthanized at 4 weeks postinjection or once any signs of broken skin caused by the extension of tumor are found. Tumors were excised with surrounding tissues for histological evaluation. Analysis of variance was used to analyze the statistical difference on tumor growth between different groups. The results are in FIG. 8, where it is shown that the volume of the tumors is the lowest when mice were treated with paclitaxel followed by the administration of 19b.
Xenograft establishment and chemotherapy. […] The tumor sizes were measured and calculated by formula: tumor size (mm^3)=[width (mm)]^2×[length (mm)]/2. […]

CC(=O)O[C@H]1C(=O)[C@@]2(C)[C@H]([C@H](OC(=O)c3ccccc3)[C@]3(O)C[C@H](OC(=O)[C@H](O)[C@@H](NC(=O)c4ccccc4)c4ccccc4)C(C)=C1C3(C)C)[C@]1(OC(C)=O)CO[C@@H]1C[C@@H]2O [Taxol, reference compound]
tumor blood vessel density / angiogenesis (CD31), single agent (10 mg/kg i.p.): statistically different from the control
tumor size, single agent (10 mg/kg i.p. twice per week for two weeks): reduction of tumor size
